{"source": "ChEMBL document CHEMBL1126850", "about": "“Examination of the D2/5-HT2 affinity ratios of resolved 5,6,7,8,9,10-hexahydro-7,10-iminocyclohept[b]indoles: an enantioselective approach toward the design of potential atypical antipsychotics” (J Med Chem, 1993)", "data": [{"target": "Serotonin 2 (5-HT2) receptor (Rattus norvegicus, UniProt P30994+P08909+P14842)", "test": "In vitro binding affinity towards 5-hydroxytryptamine 2 receptor in rat striatal membranes by [3H]ketanserin displacement.", "assay_type": "cell membranes, Striatum, Membrane", "units": {"Ki": "nM"}, "values": [{"smiles": "O=C(CCCCN1C2CCC1c1c([nH]c3ccc(F)cc13)C2)c1ccc(F)cc1", "note": "(mixture of isomers)", "Ki": 109}, {"smiles": "O=C(CCCN1C2CCC1c1c([nH]c3ccc(F)cc13)C2)c1ccc(F)cc1", "note": "(mixture of isomers)", "Ki": 2.56}, {"smiles": "O=C(CCCCN1C2CCC1c1c([nH]c3ccc(F)cc13)C2)c1ccc(F)cc1", "note": "(racemic)", "Ki": 2.98}, {"smiles": "O=C(CCCN1C2CCC1c1c([nH]c3ccc(F)cc13)C2)c1ccc(F)cc1", "note": "(racemic)", "Ki": 1.96}, {"smiles": "O=C(CCCN1C2CCC1c1c([nH]c3ccc(F)cc13)C2)c1ccc(F)cc1", "note": "(stereo in doubt; (S,R) 8)", "Ki": 0.8}, {"smiles": "O=C(CCCCN1C2CCC1c1c([nH]c3ccc(F)cc13)C2)c1ccc(F)cc1", "note": "(stereo in doubt; (S,R)-9)", "Ki": 1.87}]}]}
